Test results as given in patent US9642874B2, “Compositions of selenoorganic compounds and methods of use thereof” (Alltech, Inc., priority 2014, dated 2017).

Legend:
G6pc [1] = assay: G6pc mRNA expression (QRT-PCR) in AML-12 cells; type: cell-based, mouse; conditions: insulin 10 and 100 nM
Method: For RNA analysis of insulin receptor (Insr), insulin like growth factor receptor (Igf1r), and Glucose-6-Phosphatase (G6pc), AML-12 cells were amplified in ITS, Dex and FBS-containing DMEM/F12 media, and cultured on 24-well (6.7×10^4 cells/well) plates in 10% FBS ITS-free DMEM/F12 media with or without Dex overnight. These cells were treated with control (water) or various compounds (diluted in 10% FBS ITS-free DMEM/F12 media with or without Dex) for 6 hours, 24 hours, or 48 hours.
In some experiments, the AML-12 cells were washed twice with PBS after the compound treatments for 24 hours, and then incubated with selenium compounds (150 or 300 ppb of each compound) in the presence or absence of insulin (10 or 100 nM), 0.1 mM 8-CPT (Sigma), or 0.5 μM Dex in serum-free, glucose/phenol red-free DMEM media supplemented with 20 mM lactose and 2 mM pyruvate, and 15 mM HEPES (glucose-production media) for another 6 hours. After treatments, cell media were collected and subjected to glucose assays using Abcam glucose assay kit according to the manufacturer's protocol. […]
Total RNA from these cells was isolated using Trizol (Invitrogen) according to the manufacturer's protocol, and then incubated with DNase I to remove any potential contaminated genomic DNA. […] Three to six samples were analyzed in each treatment group. […]

G6pc [2] = assay: G6pc mRNA expression (QRT-PCR) in primary mouse hepatocytes; type: cell-based
Method: The overnight-acclimated hepatocytes were washed twice with PBS (to remove any residual FBS and other additives in the TRL hepatocyte maintenance medium, pretreated with control (water) or selenium Compounds CDE (150 or 300 ppb of each selenium compound) in DMEM/F12 media supplemented with 10% fetal bovine serum (FBS) for 24 hr. These cells were then washed twice with PBS and incubated with the same dose of selenium Compounds CDE (150 or 300 ppb) in the presence or absence of insulin (10 or 100 nM, Sigma), 0.1 mM 8-CPT (Sigma) or 0.5 μM Dex (Sigma) in serum-free and glucose-free DMEM media (Invitrogen) supplemented with 20 mM lactose (Sigma) and 2 mM pyruvate (Sigma) and 15 mM HEPES (Sigma) for another 6 hours. After treatments, cell media were collected and subjected to glucose assay and toxicological studies of lactate dehydrogenase (LDH) and cells were collected for RNA and protein analysis.
Total RNA from these cells was isolated using Trizol (Invitrogen) according to the Manufacturer's protocol and then incubated with DNase I to remove any potential contaminated genomic DNA. Then RNA samples were subjected to real-time PCR analysis using the Applied-Bioscience's RT kit and predesigned Taqman probes (Invitrogen), as described previously (Lan et al EMBO J 2003). Three to four samples were analyzed in each treatment group. […]

insulin: insulin (10 or 100 nM, Sigma) used as comparator and cotreatment
G6pc expression (G6pc [1]; 6 hours, FBS/ITS/Dex-free media): significantly inhibited G6pc expression | 8-CPT/Dex-induced G6pc expression (G6pc [1]; vs 8-CPT/Dex group): significantly decreased 8-CPT/Dex-induced G6pc expression | 8-CPT/Dex-induced G6pc expression (G6pc [2]; insulin 10 and 100 nM, vs 8-CPT/Dex group): significantly decreased 8-CPT/Dex-induced G6pc expression | G6pc expression (G6pc [2]; insulin alone (10 and 100 nM), 6 hours): significantly inhibited G6pc expression
